The target in this experiment is human aldose reductase (AR) (Homo sapiens, UniProt P15121). The experiment can be described thus: X-ray crystallography. Type of experiment: biochemical.

The term IC50 denotes the concentration that gives 50% inhibition. A higher IC50 goes with weaker potency. Regarding `O=C(O)COc1cc(F)ccc1C(=S)NCc1ccc(Br)cc1F` [compound 594, IDD594], the IC50 came out at 124 ± 10 nM.

For the origin of these results see PMC4671318 (Proteins, 2012).
